Test results from patent publication US7553979B2, “HSP90-inhibiting zearalanol compounds and methods of producing and using same” (Conforma Therapeutics Corporation, priority 2001, dated 2009).

Test system: HER2
Experiment: HER2 inhibition assay (Her-2 degradation by flow cytometry in MCF-7 cells, as manifestation of HSP90 inhibition)
Assay type: cell-based
Details: HER2 degradation, commercially acquired compounds (Sigma Aldrich), Table I, read-out: HER2 IC50
Description: MCF-7 cells are seeded in 24 well plates at a density of approximately 30,000 cells/well and allowed to grow for 16 hours in DMEM supplemented with 10% FBS. Drug (a compound as specified in Table I) is then added at a concentration range of 100 μM to 0.01 uM. Cells are incubated for an additional […]. Drug treated cells and untreated control cells are trypsinized, and incubated at room temperature for 15 minutes with anti Her-2 neu Ab conjugated with phycoerythrin (Becton Dickinson, San Jose Calif.; Cat no. 340552) at a concentration of 0.25 ug/ml, or non-specific control IgGl conjugated with phycoerytirin (Becton Dickinson, San Jose Calif.; Cat no. 340761). Samples were analyzed using a FACS Calibur flow cytometer (Becton Dickinson) equipped with Argon-ion laser that which emits 15 mW of 488 nm light for excitation of the phycoerythrin fluorochrome. 10,000 events were collected per sample. A fluorescence histogram was generated and the mean fluorescence intensity (mfi) of each sample was determined using Cellquest software. The background was defined as the mfi generated from cells incubated with control IgG, and was subtracted from each sample stained with the HER-2/neu Ab. Percent degradation of Her-2 was calculated as follows: % Her-2 degradation=(mfi HER-2 sample)/(mfi HER-2 untreated cells)×100
Compounds of the following formula (constituents as described in Table I) were acquired from Sigma Aldrich (Milwaukee, Wis.) and evaluated for HSP90 inhibition as manifested by HER2 degradation.
The following compounds were synthesized and evaluated for Her 2 degradation, with the results reflected in Table 3.

SMILES	IC50 [µM]
C[C@H]1CCCC(=O)CCCCCc2cc(O)cc(O)c2C(=O)O1 [1 (zearalanone), zearalanone, reference compound]	13
C[C@H]1CCCC(=O)CCC/C=C/c2cc(O)cc(O)c2C(=O)O1 [2 (zearalenone), zearalenone, reference compound]	7
C[C@H]1CCC[C@H](O)CCCCCc2cc(O)cc(O)c2C(=O)O1 [3 (α-zearalanol), α-zearalanol, reference compound]	30
C[C@H]1CCC[C@@H](O)CCCCCc2cc(O)cc(O)c2C(=O)O1 [4 (β-zearalanol), β-zearalanol, reference compound]	4
C[C@H]1CCC[C@H](O)CCC/C=C/c2cc(O)cc(O)c2C(=O)O1 [5 (α-zearalenol), α-zearalenol, reference compound]	40
C[C@H]1CCC[C@@H](O)CCC/C=C/c2cc(O)cc(O)c2C(=O)O1 [6 (β-zearalenol), β-zearalenol, reference compound]	1

Same assay, conditions: synthesized compounds, Table 3, read-out: IC50 (Her 2 degradation)

SMILES	IC50 [µM]
COc1cc(O)c2c(c1)OCCCCC(O)C(O)CCCCOC2=O (stereo not shown) [Example 1]	30
COc1cc2c(c(OC(C)=O)c1)C(=O)OCCCCC=CCCCCO2 [Example 2.1, 1-acetoxy-3-methoxy-6,7,8,9,12,13,14,15-octahydro-5,16-dioxa-benzocyclopentadecen-17-one]	10
COc1cc(OC(C)=O)c2c(c1C(C)=O)OCCCCC=CCCCCOC2=O [Example 2.2, 1-acetoxy-3-methoxy-4-acetyl-6,7,8,9,12,13,14,15-octahydro-5,16-dioxa-benzocyclopentadecen-17-one]	40
COc1cc(O)c2c(c1)OCCCCC(=O)CCCCCOC2=O [Example 3.1, 1-hydroxy-3-methoxy-6,7,8,9,12,13,14,15-octahydro-11H-5,16-dioxa-benzocyclopentadecene-10,17-dione]	30
COc1cc(O)c2c(c1)OCCCCCC(=O)CCCCOC2=O [Example 3.2, 1-Hydroxy-3-methoxy-6,7,8,9,12,13,14,15-octahydro-11H-5,16-dioxa-benzocyclopentadecene-11,17-dione]	16
COc1cc(O)c2c(c1)OCCCC(O)C(O)CCCOC2=O (stereo not shown) [Example 4, 1,9,10-Trihydroxy-3-methoxy-6,7,8,9,10,11,12,13-octahydro-5,14-dioxa-benzocyclotridecen-15-one]	12
COc1cc2c(c(OC(C)=O)c1)C(=O)OCCC/C=C\CCCO2 [Example 5.1, (9Z)-1-acetoxy-3-methoxy-6,7,8,11,12,13-hexahydro-5,14-dioxa-benzocyclotridecen-15-one]	13
COc1cc2c(c(OC(C)=O)c1)C(=O)OCCC/C=C/CCCO2 [Example 5.2, (9E)-1-acetoxy-3-methoxy-6,7,8,11,12,13-hexahydro-5,14-dioxa-benzocyclotridecen-15-one]	15
COc1cc2c(c(OC)c1)C(=O)OC(C)CCC(=O)CCC/C=C/2 (stereo not shown) [Example 6, 2,4-dimethoxy-7-methyl-8,9,12,13-tetrahydro-7H,11H-6-oxa-benzocyclotridecene-5,10-dione]	90
COc1cc(O)c2c(c1)/C=C/CCCC(=O)CCC(C)OC2=O (stereo not shown) [Example 7, 4-hydroxy-2-methoxy-7-methyl-8,9,12,13-tetrahydro-7H,11H-6-oxa-benzocyclotridecene-5,10-dione]	60
